Assay results: patent US4153727A, “Pharmaceutical compositions of a prostaglandin compound for rectal use in treating asthma” (priority 1977, dated 1979)

Tests used:
[1] = tested on: histamine; experiment: antiasthmatic effect, aerosol: protection against histamine-induced sneezing; assay type: in vivo; conditions: aerosol 15 sec; histamine aerosol 0.1%; guinea-pigs
Procedure: (§1) Guinea-pigs were placed in a chamber and sprayed for 10 sec. with an aerosol of histamine solution (0.1%) and onset of sneezing was recorded. Animals that sneezed within 70-100 sec. were selected as controls. These animals were sprayed for 15 sec. with an aerosol of the test compounds. After 45 sec., the animals were sprayed with histamine and observed for 3 min.

[2] = tested on: histamine; experiment: antiasthmatic effect, oral: protection against histamine-induced sneezing; assay type: in vivo; conditions: Cavia porcellus, 0.5 h, 30 min before histamine spray, guinea-pigs
Procedure: as §1
Guinea-pigs were sprayed for 10 sec with histamine 30 min after oral administration of the test compounds and observed for 3 min. The percent of amimals protected was determined.

[3] = diarrhea-producing effect, oral; conditions: guinea pig, in vivo, guinea-pigs; for TD50: observed at 2-5 hrs and next morning, read-out: (A) Diarrhea-producing effect (b) ED50; for selectivity ratio: read-out: b/a (diarrhea-producing ED50 / oral antiasthmatic ED50)
Procedure: Ii. diarrhea-producing Effect
Test compounds were administered orally to guinea-pigs. The appearance of diarrhea (loose or watery feces) at every 2 hrs, 3 hrs, 4 hrs and 5 hrs period and next morning were noted.

[4] = tested on: histamine; conditions: earlier patents; cited from earlier work
[5] = tested on: bronchoconstriction induced by intravenous injection of histamine; experiment: effect on air-way resistance (Konzett and Rossler), intraduodenal administration; assay type: in vivo, guinea-pig; conditions: Cavia porcellus, 0.5 h, 30 min before i.v. histamine 3 μg/kg, anesthetized guinea-pigs, read-out: (B) Effect on air-way resistance ED50
Procedure: Iii. effect on Air-way Resistance
The air-way resistance of the guinea-pig lung was determined by the method of Konzett and Rossler (Arch. exp. Path. Pharmak., 195, 71-74(1940)). The bronchodilator activity of prostaglandins were expressed in terms of protective effect against bronchoconstriction induced by intravenous injection of histamine (3 μg/kg). Histamine was injected 30 min after intraduodenal administration of test compound to urethane anesthetized and artificially ventilated guinea-pigs.

[6] = tested on: hystamine; experiment: Experiment 1: bronchodilator activity by hystamine spray method, rectal vs oral; assay type: in vivo, male guinea pigs; conditions: 30 min; for Bronchodilator activity, effective / animals tested: oral (control)
Procedure: A suppository prepared using the compound of formula I and the oily base or water-soluble base was applied by rectal administration (this invention) to male guinea pigs fasted for 24 hours, each weighing about 550 g. On the other hand, a solution of the compound of formula I in physiological saline solution was applied by oral administration to guinea pigs under the same condition as above for control. After 30 minutes from the administration, the bronchodilator activity of the medicament was determined by a hystamine spray method.

[7] = tested on: respiratory tract contraction induced by hystamine; experiment: 50% inhibition of respiratory tract contraction induced by hystamine, oral vs intravenous; assay type: in vivo; conditions: 50% inhibition of hystamine-induced respiratory tract contraction
[8] = rectal administration: absorption, antitussive effect, diarrhea; assay type: in vivo
[9] = stability as inhalant (aerosol); assay type: physicochemical; conditions: used as an inhalant (aerosol)
[10] = tested on: histamine; conditions: earlier patents; cited from earlier work; remark: listed apart in the source

SMILES	Antiasthmatic effect, Aerosol ED50 [1] [µg/mL]	ED50 [2] [mg/kg]	TD50 [3] [mg/kg]	selectivity ratio [3]	antiasthmatic effect by oral administration (in words) [4]	other results
CCCC[C@@H](C)[C@H](O)/C=C/[C@H]1[C@H](O)CC(=O)[C@@H]1C/C=C\CCCC(=O)O [16(R)-methyl-PGE2, 11α,15(S)-dihydroxy-16(R)-methyl-9-oxo-5(cis)-13(trans)prostadienoic acid]	0.011	0.0175	0.025	1.43	–	–
CCCC[C@H](C)[C@H](O)/C=C/[C@H]1[C@H](O)CC(=O)[C@@H]1C/C=C\CCCC(=O)O [16(S)-methyl-PGE2, 11α, 15(S)-dihydroxy-16(S)-methyl-9-oxo-5(cis)-13(trans)prostadienoic acid]	0.009	0.025	0.1	4	–	–
COCCCCC[C@H](O)/C=C/[C@H]1[C@H](O)CC(=O)[C@@H]1C/C=C\CCCC(=O)O [20-methoxy-PGE2, 11α,15(S)-dihydroxy-20-methoxy-9-oxo-5(cis)-13(trans)Prostadienoic acid]	0.15	> 0.8	–	–	does not show antiasthmatic effect	–
CCCCC[C@H](O)/C=C/[C@H]1[C@H](O)CC(=O)[C@@H]1C/C=C\CCCC(=O)O [Prostaglandin E2]	0.15	> 0.8	–	–	–	ED50 [5]: > 0.8 mg/kg
COCCCC[C@H](C)[C@H](O)/C=C/[C@H]1[C@H](O)CC(=O)[C@@H]1C/C=C\CCCC(=O)O [compound of formula I, 11α,15(S)-dihydroxy-20-methoxy-16(S)-methyl-9-oxo-5(cis),13(trans)-prostadienoic acid]	–	0.71	0.14	20	excellent antiasthmatic effect	Bronchodilator activity, effective / animals tested ([6]; 3.1 μg/kg): 1/6; Bronchodilator activity, effective / animals tested ([6]; 6.3 μg/kg): 3/6; Bronchodilator activity, effective / animals tested ([6]; 12.5 μg/kg): 4/6; Bronchodilator activity, effective / animals tested ([6]; 25 μg/kg): 4/6; Bronchodilator activity, effective / animals tested ([6]; 50 μg/kg): 5/6; Bronchodilator activity ED50 ([6]; oral administration (control)): 7.0 µg/kg; effective amount (ED50) oral relative to intravenous injection [7]: about 2400 times; absorption through the intestine [8]: unexpectedly absorbed through the intestine; antitussive effect [8]: exhibits an antitussive effect; diarrhea [8]: does not cause diarrhea; stability of the medicament [9]: difficult to maintain the stability; antiasthmatic effect by aerosol administration (in words) [10]: excellent antiasthmatic effect
